Results: PubChem BioAssay AID1033 (Sanford-Burnham Center for Chemical Genomics, 2008)
Calls of active or inactive are those of the source. How the calls were made is not given here.

Molecular target: Chaperone protein DnaK (Escherichia coli (strain K12)) (UniProt P0A6Y8)
Assay: E. coli DnaK SBD ligand binding – biophysical, NMR, chaperone (AID 1033)
Details: Purified DnaK SBD

Chaperone protein DnaK (Escherichia coli (strain K12)), sequence (P0A6Y8 whole entry, looked up): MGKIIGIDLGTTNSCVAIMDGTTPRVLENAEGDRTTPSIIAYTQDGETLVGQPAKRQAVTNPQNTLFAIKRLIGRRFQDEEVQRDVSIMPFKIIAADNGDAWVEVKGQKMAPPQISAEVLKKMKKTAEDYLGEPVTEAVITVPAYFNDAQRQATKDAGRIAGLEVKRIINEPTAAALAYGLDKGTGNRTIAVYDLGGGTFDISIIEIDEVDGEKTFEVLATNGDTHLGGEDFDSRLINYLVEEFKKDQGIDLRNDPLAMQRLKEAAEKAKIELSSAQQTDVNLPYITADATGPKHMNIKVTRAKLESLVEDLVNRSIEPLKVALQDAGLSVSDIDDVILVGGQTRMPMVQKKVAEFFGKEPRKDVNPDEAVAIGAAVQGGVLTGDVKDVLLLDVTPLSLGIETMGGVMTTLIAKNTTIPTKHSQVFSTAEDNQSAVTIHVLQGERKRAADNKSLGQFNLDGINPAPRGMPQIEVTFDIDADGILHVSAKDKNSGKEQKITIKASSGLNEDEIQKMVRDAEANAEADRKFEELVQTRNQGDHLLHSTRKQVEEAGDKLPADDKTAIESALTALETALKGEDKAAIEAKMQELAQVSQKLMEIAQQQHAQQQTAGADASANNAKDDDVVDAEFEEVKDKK

| SMILES | Kd |
| --- | --- |
| O=C(c1cc(Cl)cc(Cl)c1)N1CCOCC1 | > 4 mM (inactive) |
| Cc1cc(=O)[nH]c(N2CCCCC2)n1 | > 4 mM (inactive) |
| CC(C)(C)NC(=O)CN1C(=O)c2ccccc2S1(=O)=O | > 4 mM (inactive) |
| CC(=O)O[C@@H]1CC2C(C)(C)CCC(=O)[C@]2(C)C2CC[C@@]3(C)[C@H](c4ccoc4)OC(=O)C4OC43[C@@]21C (stereo not given in full) | > 4 mM (inactive) |
| O=CN1CCN(C2CC(=O)N(c3ccccc3)C2=O)CC1 (stereo not given) | > 4 mM (inactive) |
| Nc1c2c3c(sc2nc(=O)n1N)CCCC3 | > 4 mM (inactive) |
| O=C(O)c1cccc2c1OCCCO2 | > 4 mM (inactive) |
| O=C(NCc1cccc2ccccc12)c1cccs1 | < 0.2 mM |
| Nc1ncnc(NCCCO)c1[N+](=O)[O-] | > 4 mM (inactive) |
| c1ccc(Cc2nnc3sc(-c4ccncc4)nn23)cc1 | > 4 mM (inactive) |
| CC(C)=CCOc1cc2oc(=O)ccc2cc1O | > 4 mM (inactive) |
| O=C1CSC(=Nc2cccc(C(F)(F)F)c2)N1 | > 4 mM (inactive) |
| CC1CN(C(=O)c2ccncc2)CC(C)O1 (stereo not given) | > 4 mM (inactive) |
| COc1ccc(-c2nc(C)sc2CC(=O)O)cc1 | > 4 mM (inactive) |
| COc1ccc2c(c1)OCC(Cc1ccc(OC)c(O)c1)C2=O (stereo not given) | > 4 mM (inactive) |
| OCC1COc2ccccc2O1 (stereo not given) | > 4 mM (inactive) |
| O=c1/c(=C/c2ccccc2F)sc2ncnn12 | > 4 mM (inactive) |
| O=c1ccc2nc3ccccc3c(=O)n2[nH]1 | > 4 mM (inactive) |
| Cc1cc(C)c(NC(=O)CN2CCC(O)CC2)c(C)c1 | > 4 mM (inactive) |
| O=C1Nc2ccccc2C1C1(O)C(=O)Nc2ccc(F)cc21 (stereo not given) | > 4 mM (inactive) |
| Cc1cc(C(=O)N2CCN(S(C)(=O)=O)CC2)cs1 | > 4 mM (inactive) |
| CN(C)c1nc(N2CCOCC2)nc(N2CCOCC2)n1 | > 4 mM (inactive) |
| S=c1[nH]cnc2sccc12 | > 4 mM (inactive) |

| SMILES | Kd |
| --- | --- |
| O=c1cc(-c2ccccc2)oc2cc(O)c(O)c(O)c12 | > 4 mM (inactive) |
| O=C(O)CSCc1ccc(Cl)cc1 | > 4 mM (inactive) |
| Cc1nnc(NCc2cccnc2)[nH]c1=O | > 4 mM (inactive) |
| Cc1cccc(CO)n1 | > 4 mM (inactive) |
| O=C1C2C3C=CC(C3)C2C(=O)N1c1cccnc1 (stereo not given) | > 4 mM (inactive) |
| CC1(C)C2CC(=O)[C@]3(C)C(CC[C@@]4(C)[C@H](c5ccoc5)OC(=O)C5OC543)[C@@]2(C)[C@@H](O)C[C@H]1O (stereo not given in full) | > 4 mM (inactive) |
| CC1(C)CC[C@]2(C(=O)O)CC[C@]3(C)C(=CCC4[C@@]5(C)CC[C@H](O)[C@@](C)(CO)C5CC[C@]43C)C2C1 (stereo not given in full) | > 4 mM (inactive) |
| C=C1C2CC[C@H]3[C@]4(C)C[C@H](OC5OC(CO)C(OS(=O)(=O)O)C(OS(=O)(=O)O)C5OC(=O)CC(C)C)C[C@@H](C(=O)O)[C@H]4CC[C@]3(C2)[C@H]1O (stereo not given in full) | > 4 mM (inactive) |
| Cc1ccc(C)c(S(=O)(=O)NCc2cccnc2)c1 | > 4 mM (inactive) |
| NS(=O)(=O)c1ccc2c(c1)OCCO2 | > 4 mM (inactive) |
| S=C(NCC1CCCO1)NC1CC1 (stereo not given) | > 4 mM (inactive) |
| O=C(c1ccc(F)cc1)C1CCNCC1 | > 4 mM (inactive) |
| CS(=O)(=O)Nc1nnc(Cc2ccccc2)s1 | > 4 mM (inactive) |
| Cc1cc(C)nc(/N=C(/N)N2CCC(C(N)=O)CC2)n1 | > 4 mM (inactive) |
| COc1ccc(NC(=O)C(N)=O)cc1Cl | > 4 mM (inactive) |
| O=C(O)Cc1nc(-c2ccncc2)n[nH]1 | > 4 mM (inactive) |
| CNC(=O)C1CCCN(S(C)(=O)=O)C1 (stereo not given) | > 4 mM (inactive) |
| O=C(NC(=S)NCCO)c1ccccc1 | > 4 mM (inactive) |
| C#CCCCCCCCCCCCC(=O)CC(O)COC(C)=O (stereo not given) | > 4 mM (inactive) |
| CC(C)c1ccc(NC(=O)C(N)=O)cc1 | > 4 mM (inactive) |
| COc1ccc(-c2cc(=O)c3c(O)cc(O[C@H]4O[C@H](CO[C@@H]5O[C@@H](C)[C@H](O)[C@@H](O)[C@H]5O)[C@@H](O)[C@H](O)[C@H]4O)cc3o2)cc1 | > 4 mM (inactive) |
| Nc1cc(=O)[nH]c(=S)n1-c1cccc(C(F)(F)F)c1 | > 4 mM (inactive) |
| CC(=O)Nc1ccc(S(N)(=O)=O)cc1 | > 4 mM (inactive) |

| SMILES | Kd |
| --- | --- |
| CN1CCC(O)N1C(=O)c1ccccc1O (stereo not given) | > 4 mM (inactive) |
| Cc1ccccc1NC(=O)CC1SC(N)=NC1=O (stereo not given) | > 4 mM (inactive) |
| COc1ccccc1NC(=O)NC(N)=O | > 4 mM (inactive) |
| Cc1cc(C(=O)NC2=NCCS2)cs1 | > 4 mM (inactive) |
| CC(=O)c1ccc(-n2ccnc2)cc1 | > 4 mM (inactive) |
| O=C(Nn1cnnc1)c1csc2c1CCCC2 | > 4 mM (inactive) |
| Cc1cc(NC(=O)c2ccc3c(c2)OCO3)no1 | > 4 mM (inactive) |
| COc1cc2c(cc1-c1coc3c4c(c(OC)cc3c1=O)OC(C)(C)C=C4)OCO2 | > 4 mM (inactive) |
| CS(=O)(=O)Nc1ccc(C(=O)N2CCCCC2)cc1 | > 4 mM (inactive) |
| Nc1nc2n(c1C(=O)c1ccccc1)CCC2 | > 4 mM (inactive) |
| COc1cnn(Cc2ccccc2)c(=O)c1Cl | > 4 mM (inactive) |
| COc1cc(-c2csc(C)n2)ccc1O | > 4 mM (inactive) |
| CN(C(=O)NC1CCS(=O)(=O)C1)C1CCCCC1 (stereo not given) | > 4 mM (inactive) |
| Fc1ccc(-c2n[nH]c(=S)n2CC2CCCO2)cc1 (stereo not given) | > 4 mM (inactive) |
| NC(=O)c1cc(N)cc(C(N)=O)c1 | > 4 mM (inactive) |
| C[C@@H]1CC[C@@]2(OC1)O[C@H]1CC3C4CC[C@H]5C[C@@H](O)CC[C@]5(C)C4CC[C@]3(C)[C@H]1[C@@H]2C (stereo not given in full) | > 4 mM (inactive) |
| O=C(Nc1ccccc1)c1cccc(N2C(=O)CCC2=O)c1 | > 4 mM (inactive) |
| COc1ccc(-c2coc3c(OC)c(OC)cc(OC)c3c2=O)cc1 | > 4 mM (inactive) |
| CC1(O)CC2C=CC1C2 (stereo not given) | > 4 mM (inactive) |
| CC(=O)Oc1cc2c(C(C)=O)coc2c2ccccc12 | > 4 mM (inactive) |
| O=c1c[n+]([O-])c2ccccc2n1OCc1ccccn1 | > 4 mM (inactive) |
| S=C=NCc1ccccc1 | > 4 mM (inactive) |
| NC(=O)c1cn(-c2ccccc2)nc1-c1cccnc1 | > 4 mM (inactive) |

| SMILES | Kd |
| --- | --- |
| Cn1c(O)c(/C=C2\C=CC=N2)c(=O)[nH]c1=O | > 4 mM (inactive) |
| CP(C)(=O)c1cccc(C(=O)O)c1 | > 4 mM (inactive) |
| N#Cc1sc2nc3c(c(-c4cccnc4)c2c1N)CCC3 | > 4 mM (inactive) |
| C/C1=C/CC(C)(C)/C=C/C/C(C)=C/CC1 | > 4 mM (inactive) |
| OC1CNCc2cc3c(cc21)OCCO3 (stereo not given) | > 4 mM (inactive) |
| NCc1ccccc1N1CCCCC1 | > 4 mM (inactive) |
| COC(=O)[C@]1(C)CCC[C@]2(C)c3ccc(C(C)C)cc3C(=O)CC12 (stereo not given in full) | > 4 mM (inactive) |
| Cc1occc1C(=O)Nc1cc(C(C)(C)C)on1 | > 4 mM (inactive) |
| CN1C(=O)c2ccc(C(=O)NCc3ccccc3)cc2C1=O | > 4 mM (inactive) |
| COC(=O)Nc1nc2c(C)cccc2s1 | > 4 mM (inactive) |
| NCCN=C1NS(=O)(=O)c2ccccc21 | > 4 mM (inactive) |
| Cc1ccc(-c2cc(C(=O)N3CCCC3)no2)cc1 | > 4 mM (inactive) |
| O=C1CNCc2[nH]c3ccccc3c2N1c1ccccc1 | > 4 mM (inactive) |
| O=C1C[C@@H](c2ccc(O)cc2)Oc2cc(O)cc(O)c21 | > 4 mM (inactive) |
| C=C(C)[C@@H]1CC[C@]2(CO)CC[C@]3(C)[C@H](CCC4[C@@]5(C)CC[C@H](O)C(C)(C)C5CC[C@]43C)C12 (stereo not given in full) | > 4 mM (inactive) |
| O=C(CC1SC(=O)NC1=O)Nc1ccccc1 (stereo not given) | > 4 mM (inactive) |
| COc1cccc(=O)c2c(C)n(C)c(C)c12 | > 4 mM (inactive) |
| OC1CC(c2ccccc2)NC2(CCCC2)C1 (stereo not given) | > 4 mM (inactive) |
| NC(CSCSCC(N)C(=O)O)C(=O)O (stereo not given) | > 4 mM (inactive) |
| COc1ccc(Cc2nccc3cc(OC)c(OC)cc23)cc1OC | > 4 mM (inactive) |
| CN(C)C(=O)CSc1cccc2cccnc12 | > 4 mM (inactive) |
| COc1cc2c(cc1O)[C@@H](Cc1ccc(O)cc1)[N+](C)(C)CC2 | > 4 mM (inactive) |
| CCn1cnc2scc(-c3ccccc3)c2c1=O | > 4 mM (inactive) |

| SMILES | Kd |
| --- | --- |
| CS(=O)(=O)N1CCN(c2ncccn2)CC1 | > 4 mM (inactive) |
| Cc1nnc(SCC(=O)N2CCCCC2)s1 | > 4 mM (inactive) |
| NCc1n[nH]c(=O)c2ccccc12 | > 4 mM (inactive) |
| COc1cc2c(cc1OC)[C@@]13CCN4CC5=CCOC6CC(=O)N2C1[C@H]6[C@H]5C[C@H]43 (stereo not given in full) | > 4 mM (inactive) |
| COc1cccc(N2CCN(C(=O)c3cccnc3)CC2)c1 | > 4 mM (inactive) |
| Cc1cc(C)n2nc(C(=O)Nc3cccnc3)nc2n1 | > 4 mM (inactive) |
| CC[C@@]1(O)C[C@H](O)c2c(cc3c(c2O)C(=O)c2c(O)ccc(O)c2C3=O)[C@H]1C(=O)OC | > 4 mM (inactive) |
| COC(=O)C[C@H]1C(C)(C)C(=O)[C@@H]2CC3C4=CC(=O)O[C@@H](c5ccoc5)[C@]4(C)CCC3C1(C)C2=O (stereo not given in full) | > 4 mM (inactive) |
| CCc1cc(=O)[nH]c(SCC(=O)NCCOC)n1 | > 4 mM (inactive) |
| C=CCNC(=O)c1nn2cccnc2c1Cl | > 4 mM (inactive) |
| CC12CC[C@H](CC1=O)C2(C)C | > 4 mM (inactive) |
| Cc1ccc(C(=O)Nc2nnc(-c3ccncc3)s2)o1 | > 4 mM (inactive) |
| CN1CCN(C2CCSC2)CC1 (stereo not given) | > 4 mM (inactive) |
| O=C(Nc1cccnc1)c1ccc(Br)s1 | > 4 mM (inactive) |
| CC(=O)Nc1ccc(S(=O)(=O)Nc2cc(C)on2)cc1 | > 4 mM (inactive) |
| COc1ccc2c(c1)CCCN2C(N)=O | > 4 mM (inactive) |
| CC1(C)N=C2C(=N)C=CC=C2N1O | > 4 mM (inactive) |
| NCc1c[nH]c2ccccc12 | > 4 mM (inactive) |
| CC1=NN(c2ccc(N)cc2)C(=O)C1 | > 4 mM (inactive) |
| Nc1nc(O)c(C2=c3cc(Cl)ccc3=NC2=O)s1 | > 4 mM (inactive) |
| Cc1sc2nc3n(c(=O)c2c1C)CCCS3 | > 4 mM (inactive) |
| Cc1nn(-c2ccccc2)c(Cl)c1C(N)=O | > 4 mM (inactive) |
| O=c1cnnc(SCCc2ccccc2)[nH]1 | > 4 mM (inactive) |
